Experiments:
NCI 60-cell panel = conditions: read-out: Growth Inhibition of 50% (GI50); cited from earlier work
non-tumor cells = conditions: cited from earlier work
[1] = tested on: Hsp90 derived from transformed cells overexpressing HER-2; conditions: cited from earlier work
[2] = preclinical data; cited from earlier work
Hsp70 = conditions: cited from earlier work
[3] = cited from earlier work
monocytic THP-1 cells [4] = test: HSP70 protein levels in monocytic THP-1 cells (autoradiograph, FIG. 1); assay type: cell-based; conditions: β-actin as standard
Text: FIG. 1 is an autoradiograph showing HSP70 levels in monocytic THP-1 cells treated with NVP-AUY922 or 17-DMAG. β-actin levels are shown as a standard.

human Hsp90α = human Hsp90α (Homo sapiens, UniProt P07900); conditions: cited from earlier work
[5] = in vivo; cited from earlier work
monocytic THP-1 cells [6] = test: Pro-inflammatory cytokine protein expression (Table 1); assay type: cell-based; conditions: for IL-6 Protein Expression: Control 7.40; for IL-10 Protein Expression: Control 9.89; for IL-1β Protein Expression: Control 15.24; for IL-8 Protein Expression: Control 110.44; for TNF-α Protein Expression: Control 1611.19
monocytic THP-1 cells [7] = test: Pro-inflammatory cytokine gene expression by qRT-PCR (Table 1); assay type: cell-based; conditions: Control 1.0
Procedure: The major pro-inflammatory cytokines that are responsible for early inflammatory responses include IL1-α, IL1-β, IL-6, and TNF-α. […] Inflammatory cytokines and tissue factor gene expression were evaluated using quantitative real-time polymerase chain reaction (qRT-PCR). Amount of tissue factor was determined using a one stage clotting assay calibrated against a known amount of tissue factor (INNOVIN).

mice with SCD = test: LPS challenge in Townes sickle cell (SS) and AA mice treated with AUY922; assay type: in vivo, mouse
Procedure: FIG. 4 is a schematic diagram of an experimental procedure for assaying HSP90 inhibitors for the treatment SCD.
FIG. 5A is a bar graph of HSP70/GAPDH (relative units) for mice treated with phosphate buffered saline (PBS) or AUY922 (25 mg/Kg B.W.) daily for four days. FIG. 5B is a bar graph of HSP70/GAPDH (relative units) for mice treated with 0.1 μg/g B.W. of LPS or 0.1 μg/g B.W. of LPS plus AUY922 (25 mg/Kg B.W.).
Cytokine (ng/ml) for AA or SS mice treated with control, AUY, LPS, or LPS+AUY is shown.
Mouse Phenotype: B6;129-Hba^tm1(HBA)Tow Hbb^tm2(HBG1,HBB*)Tow/Hbb^tm3(HBG1,HBB)Tow/J
Entire Mouse Globin Locus Removed and Replace by Human Hemoglobin S or A.
AA, SS, & SA mice are available.

C=CCNC1=C2C[C@@H](C)C[C@H](OC)[C@H](O)[C@@H](C)/C=C(\C)[C@H](OC(N)=O)[C@@H](OC)/C=C\C=C(/C)C(=O)NC(=CC1=O)C2=O [17-AAG, 17-allylamino-17-demethoxygeldanamycin]
GI50 (NCI 60-cell panel): 120 nM
toxicity toward non-tumor cells (non-tumor cells): low toxicity
IC50 ([1]; Hsp90 from HER-2 overexpressing cells (BT474, N87, SKOV3, SKBR3) or BT474 breast carcinoma cells, read-out: 1050 values): 5 to 6 nM
higher affinity for Hsp90 derived from transformed cells ([1]; transformed cells overexpressing HER-2, comparator not printed (non-tumor cells are named just before)): more than 100 ×

CC(C)c1cc(-c2n[nH]c(=O)n2-c2ccc3c(ccn3C)c2)c(O)cc1O [Ganetespib]
cardiac or liver toxicity [2]: no evidence of cardiac or liver toxicity
Hsp70 expression (Hsp70): induces the overexpression of Hsp70

CO[C@H]1/C=C\C=C(/C)C(=O)NC2=CC(=O)C(NCCN(C)C)=C(C[C@@H](C)C[C@H](OC)[C@H](O)[C@@H](C)/C=C(\C)[C@@H]1OC(N)=O)C2=O [17-DMAG, 17-Dimethylaminoethylamino-17-demethoxygeldanamycin]
water solubility [3]: water-soluble
HSP70 protein levels (monocytic THP-1 cells [4]): increases HSP70 protein levels
binding to ATPase site of human Hsp90α (human Hsp90α): high affinity
GI50 (NCI 60-cell panel): 51 nM
bioavailability [5]: excellent bioavailability

C=CCNc1c(O)cc2c(O)c1C[C@@H](C)C[C@H](OC)[C@H](O)[C@@H](C)/C=C(\C)[C@H](OC(N)=O)[C@@H](OC)/C=C\C=C(/C)C(=O)N2.Cl [IPI-504, Retaspimycin hydrochloride]
water solubility [3]: water-soluble
bioavailability [5]: excellent bioavailability

CCNC(=O)c1noc(-c2cc(C(C)C)c(O)cc2O)c1-c1ccc(CN2CCOCC2)cc1 [AUY922, 5-(2,4-dihydroxy-5-isopropylphenyl)-N-ethyl-4-(4-(morpholinomethyl)phenyl)isoxazole-3-carboxamide]
IL-6 Protein Expression (monocytic THP-1 cells [6]; AUY922 alone): 7.10
IL-10 Protein Expression (monocytic THP-1 cells [6]; AUY922 alone): 4.20
IL-1β Protein Expression (monocytic THP-1 cells [6]; AUY922 alone): 14.24
IL-8 Protein Expression (monocytic THP-1 cells [6]; AUY922 alone): 130.61
TNF-α Protein Expression (monocytic THP-1 cells [6]; AUY922 alone): 1437.12
IL-10 Protein Expression (monocytic THP-1 cells [6]; LPS + AUY922, LPS alone 41.18): 2.95
IL-6 Protein Expression (monocytic THP-1 cells [6]; LPS + AUY922, LPS alone 156.51): 6.80
IL-1β Protein Expression (monocytic THP-1 cells [6]; LPS + AUY922, LPS alone 775.64): 14.57
IL-8 Protein Expression (monocytic THP-1 cells [6]; LPS + AUY922, LPS alone 839.99): 117.87
TNF-α Protein Expression (monocytic THP-1 cells [6]; LPS + AUY922, LPS alone 4391.73): 1587.49
HSP70 protein levels (monocytic THP-1 cells [4]): increases HSP70 protein levels
IL-1β Gene Expression (Fold) (monocytic THP-1 cells [7]; AUY922 alone): 0.9 Fold
IL-6 Gene Expression (Fold) (monocytic THP-1 cells [7]; AUY922 alone): 1.2 Fold
IL-8 Gene Expression (Fold) (monocytic THP-1 cells [7]; AUY922 alone): 1.0 Fold
IL-10 Gene Expression (Fold) (monocytic THP-1 cells [7]; AUY922 alone): 30.2 Fold
TNF-α Gene Expression (Fold) (monocytic THP-1 cells [7]; AUY922 alone): 0.8 Fold
TNF-α Gene Expression (Fold) (monocytic THP-1 cells [7]; LPS + AUY922, LPS alone 7.1): 6.2 Fold
IL-6 Gene Expression (Fold) (monocytic THP-1 cells [7]; LPS + AUY922, LPS alone 42.5): 3.25 Fold
IL-8 Gene Expression (Fold) (monocytic THP-1 cells [7]; LPS + AUY922, LPS alone 235.5): 795.5 Fold
IL-10 Gene Expression (Fold) (monocytic THP-1 cells [7]; LPS + AUY922, LPS alone 350.4): 200.1 Fold
IL-1β Gene Expression (Fold) (monocytic THP-1 cells [7]; LPS + AUY922, LPS alone 1950): 20 Fold
inflammation in in vivo model system for SCD (mice with SCD; SS mice): significant decrease in inflammation
plasma levels of Il-1-Beta (mice with SCD; SS mice): reduces plasma levels
plasma levels of TNF-alpha (mice with SCD; SS mice): reduces plasma levels
LPS-induced Il-6 response (mice with SCD; mice with SCD): ablates the profound LPS-induced Il-6 response
endothelial cell activation (sVCAM) (mice with SCD; mice with SCD, PBS, AUY922, LPS or LPS+AUY): blocks endothelial cell activation
HSP70/GAPDH pharmacodynamic response (mice with SCD; mice, AUY922 25 mg/Kg B.W. daily for four days, with or without LPS 0.1 μg/g B.W.): meets pharmacodynamic requirements
